Test results published in article PMC11576293, “New series of 4,6-diaryl pyrimidines: facile synthesis and antiproliferative activity as dual EGFR/VEGFR-2 inhibitors” (Frontiers in Chemistry, 2024).

Experiments:
Assay in all cases: NCI-60 single-dose screen
Format in all cases: cell-based
A498 = conditions: Homo sapiens, single dose 10 µM, '-' = no inhibition, read-out: % Growth Inhibition
How it was run: (§1)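 Was run as a one-dose (10 μM) screen by the NCI Developmental Therapeutics Program, covering 60 tumour cell lines from nine cancer types including renal, melanoma and CNS.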

HOP-62 = conditions: Homo sapiens, single dose 10 µM, '-' = no inhibition, read-out: % Growth Inhibition
How it was run: as §1

SNB-75 = conditions: Homo sapiens, single dose 10 µM, '-' = no inhibition, read-out: % Growth Inhibition
How it was run: as §1

HCC-2998 = conditions: Homo sapiens, single dose 10 µM, '-' = no inhibition, read-out: % Growth Inhibition
How it was run: as §1

RPMI-8226 = conditions: Homo sapiens, single dose 10 µM, '-' = no inhibition, read-out: % Growth Inhibition
How it was run: as §1

RXF 393 = conditions: Homo sapiens, single dose 10 µM, '-' = no inhibition, read-out: % Growth Inhibition
How it was run: as §1

CAKI-1 = conditions: Homo sapiens, single dose 10 µM, '-' = no inhibition, read-out: % Growth Inhibition
How it was run: as §1

SF-539 = conditions: Homo sapiens, single dose 10 µM, '-' = no inhibition, read-out: % Growth Inhibition
How it was run: as §1

IGROV1 = conditions: Homo sapiens, IGROV-1, single dose 10 µM, '-' = no inhibition, read-out: % Growth Inhibition
How it was run: as §1

MCF7 = conditions: Homo sapiens, single dose 10 µM, '-' = no inhibition, read-out: % Growth Inhibition
How it was run: as §1

SK-MEL-28 = conditions: Homo sapiens, single dose 10 µM, '-' = no inhibition, read-out: % Growth Inhibition
How it was run: as §1

A549/ATCC = conditions: Homo sapiens, single dose 10 µM, '-' = no inhibition, read-out: % Growth Inhibition
How it was run: as §1

786-0 = conditions: Homo sapiens, single dose 10 µM, '-' = no inhibition, read-out: % Growth Inhibition
How it was run: as §1

MALME-3M = conditions: Homo sapiens, single dose 10 µM, '-' = no inhibition, read-out: % Growth Inhibition
How it was run: as §1

DU-145 = conditions: Homo sapiens, single dose 10 µM, '-' = no inhibition, read-out: % Growth Inhibition
How it was run: as §1

HCT-15 = conditions: Homo sapiens, single dose 10 µM, '-' = no inhibition, read-out: % Growth Inhibition
How it was run: as §1

HOP-92 = conditions: Homo sapiens, single dose 10 µM, '-' = no inhibition, read-out: % Growth Inhibition
How it was run: as §1

SF-295 = conditions: Homo sapiens, single dose 10 µM, '-' = no inhibition, read-out: % Growth Inhibition
How it was run: as §1

M14 = conditions: Homo sapiens, single dose 10 µM, '-' = no inhibition, read-out: % Growth Inhibition
How it was run: as §1

NCI-H23 = conditions: Homo sapiens, single dose 10 µM, '-' = no inhibition, read-out: % Growth Inhibition
How it was run: as §1

NCI-H322M = conditions: Homo sapiens, single dose 10 µM, '-' = no inhibition, read-out: % Growth Inhibition
How it was run: as §1

U251 = conditions: Homo sapiens, U-251, single dose 10 µM, '-' = no inhibition, read-out: % Growth Inhibition
How it was run: as §1

NCI-H460 = conditions: Homo sapiens, single dose 10 µM, '-' = no inhibition, read-out: % Growth Inhibition
How it was run: as §1

MDA-MB-468 = conditions: Homo sapiens, single dose 10 µM, '-' = no inhibition, read-out: % Growth Inhibition
How it was run: as §1

EKVX = conditions: Homo sapiens, single dose 10 µM, '-' = no inhibition, read-out: % Growth Inhibition
How it was run: as §1

SNB-19 = conditions: Homo sapiens, single dose 10 µM, '-' = no inhibition, read-out: % Growth Inhibition
How it was run: as §1

ACHN 1 = conditions: Homo sapiens, single dose 10 µM, '-' = no inhibition, read-out: % Growth Inhibition
How it was run: as §1

HS 578T = conditions: Homo sapiens, single dose 10 µM, '-' = no inhibition, read-out: % Growth Inhibition
How it was run: as §1

CCRF-CEM = conditions: Homo sapiens, single dose 10 µM, '-' = no inhibition, read-out: % Growth Inhibition
How it was run: as §1

OVCAR-5 = conditions: Homo sapiens, single dose 10 µM, '-' = no inhibition, read-out: % Growth Inhibition
How it was run: as §1

LOX IMVI = conditions: Homo sapiens, single dose 10 µM, '-' = no inhibition, read-out: % Growth Inhibition
How it was run: as §1

NCI-H522 = conditions: Homo sapiens, single dose 10 µM, '-' = no inhibition, read-out: % Growth Inhibition
How it was run: as §1

SR = conditions: Homo sapiens, single dose 10 µM, '-' = no inhibition, read-out: % Growth Inhibition
How it was run: as §1

PC-3 = conditions: Homo sapiens, single dose 10 µM, '-' = no inhibition, read-out: % Growth Inhibition
How it was run: as §1

SF-268 = conditions: Homo sapiens, single dose 10 µM, '-' = no inhibition, read-out: % Growth Inhibition
How it was run: as §1

SK-MEL-5 = conditions: Homo sapiens, single dose 10 µM, '-' = no inhibition, read-out: % Growth Inhibition
How it was run: as §1

SW-620 = conditions: Homo sapiens, single dose 10 µM, '-' = no inhibition, read-out: % Growth Inhibition
How it was run: as §1

SK-OV-3 = conditions: Homo sapiens, single dose 10 µM, '-' = no inhibition, read-out: % Growth Inhibition
How it was run: as §1

OVCAR-4 = conditions: Homo sapiens, single dose 10 µM, '-' = no inhibition, read-out: % Growth Inhibition
How it was run: as §1

NCI/ADR-RES = conditions: Homo sapiens, single dose 10 µM, '-' = no inhibition, read-out: % Growth Inhibition
How it was run: as §1

UACC-62 = conditions: Homo sapiens, single dose 10 µM, '-' = no inhibition, read-out: % Growth Inhibition
How it was run: as §1

COLO 205 = conditions: Homo sapiens, single dose 10 µM, '-' = no inhibition, read-out: % Growth Inhibition
How it was run: as §1

HCT-116 = conditions: Homo sapiens, single dose 10 µM, '-' = no inhibition, read-out: % Growth Inhibition
How it was run: as §1

KM12 = conditions: Homo sapiens, single dose 10 µM, '-' = no inhibition, read-out: % Growth Inhibition
How it was run: as §1

T-47D = conditions: Homo sapiens, T47D, single dose 10 µM, '-' = no inhibition, read-out: % Growth Inhibition
How it was run: as §1

SK-MEL-2 = conditions: Homo sapiens, single dose 10 µM, '-' = no inhibition, read-out: % Growth Inhibition
How it was run: as §1

OVCAR-3 = conditions: Homo sapiens, single dose 10 µM, '-' = no inhibition, read-out: % Growth Inhibition
How it was run: as §1

UO-31 = conditions: Homo sapiens, single dose 10 µM, '-' = no inhibition, read-out: % Growth Inhibition
How it was run: as §1

SMILES: COc1ccc(-c2cc(-c3ccc(Cl)cc3)nc(SC(C)C)n2)cc1 [Compound 12, 4-(4-Chlorophenyl)-2-(isopropylthio)-6-(4-methoxyphenyl)pyrimidine]
- inhibition at 10 µM (A498): < 0%
- inhibition at 10 µM (HOP-62): < 0%
- inhibition at 10 µM (SNB-75): < 0%
- inhibition at 10 µM (HCC-2998): 1.06%
- inhibition at 10 µM (RPMI-8226): 26.7%
- inhibition at 10 µM (RXF 393): 26.4%
- inhibition at 10 µM (CAKI-1): 14.1%
- inhibition at 10 µM (SF-539): 6.88%
- inhibition at 10 µM (IGROV1): < 0%
- inhibition at 10 µM (MCF7): 28.8%
- inhibition at 10 µM (SK-MEL-28): < 0%
- inhibition at 10 µM (A549/ATCC): 15.9%
- inhibition at 10 µM (786-0): 7.48%
- inhibition at 10 µM (MALME-3M): 1.51%
- inhibition at 10 µM (DU-145): 14.7%
- inhibition at 10 µM (HCT-15): 38.7%
- inhibition at 10 µM (HOP-92): < 0%
- inhibition at 10 µM (SF-295): 4.52%
- inhibition at 10 µM (M14): 8.46%
- inhibition at 10 µM (NCI-H23): 10.7%
- inhibition at 10 µM (NCI-H322M): 4.22%
- inhibition at 10 µM (U251): 7.59%
- inhibition at 10 µM (NCI-H460): 7.21%
- inhibition at 10 µM (MDA-MB-468): 35.1%
- inhibition at 10 µM (EKVX): 16.8%
- inhibition at 10 µM (SNB-19): 1.49%
- inhibition at 10 µM (ACHN 1): < 0%
- inhibition at 10 µM (HS 578T): < 0%
- inhibition at 10 µM (CCRF-CEM): 24.1%
- inhibition at 10 µM (OVCAR-5): < 0%
- inhibition at 10 µM (LOX IMVI): 13.6%
- inhibition at 10 µM (NCI-H522): 21.6%
- inhibition at 10 µM (SR): 47.1%
- inhibition at 10 µM (PC-3): 2.88%
- inhibition at 10 µM (SF-268): < 0%
- inhibition at 10 µM (SK-MEL-5): 17.9%
- inhibition at 10 µM (SW-620): 5.57%
- inhibition at 10 µM (SK-OV-3): < 0%
- inhibition at 10 µM (OVCAR-4): 11.8%
- inhibition at 10 µM (NCI/ADR-RES): 11.2%
- inhibition at 10 µM (UACC-62): 19.1%
- inhibition at 10 µM (COLO 205): < 0%
- inhibition at 10 µM (HCT-116): 19.6%
- inhibition at 10 µM (KM12): 9.45%
- inhibition at 10 µM (T-47D): 40.4%
- inhibition at 10 µM (SK-MEL-2): 19.5%
- inhibition at 10 µM (OVCAR-3): < 0%
- inhibition at 10 µM (UO-31): 15.7%

SMILES: C=CCSc1nc(-c2ccc(Cl)cc2)cc(-c2ccc(OC)cc2)n1 [Compound 13, 2-(Allylthio)-4-(4-chlorophenyl)-6-(4-methoxyphenyl)pyrimidine]
- inhibition at 10 µM (A498): < 0%
- inhibition at 10 µM (HOP-62): < 0%
- inhibition at 10 µM (SNB-75): < 0%
- inhibition at 10 µM (HCC-2998): < 0%
- inhibition at 10 µM (RPMI-8226): 4.91%
- inhibition at 10 µM (RXF 393): 0.35%
- inhibition at 10 µM (CAKI-1): 14.8%
- inhibition at 10 µM (SF-539): < 0%
- inhibition at 10 µM (IGROV1): < 0%
- inhibition at 10 µM (MCF7): < 0%
- inhibition at 10 µM (SK-MEL-28): < 0%
- inhibition at 10 µM (A549/ATCC): < 0%
- inhibition at 10 µM (786-0): 3.01%
- inhibition at 10 µM (MALME-3M): < 0%
- inhibition at 10 µM (DU-145): 1.02%
- inhibition at 10 µM (HCT-15): 7.93%
- inhibition at 10 µM (HOP-92): < 0%
- inhibition at 10 µM (SF-295): 1.47%
- inhibition at 10 µM (M14): 4.04%
- inhibition at 10 µM (NCI-H23): 3.36%
- inhibition at 10 µM (NCI-H322M): 0.59%
- inhibition at 10 µM (U251): < 0%
- inhibition at 10 µM (NCI-H460): 0.1%
- inhibition at 10 µM (MDA-MB-468): 16.2%
- inhibition at 10 µM (EKVX): 2.11%
- inhibition at 10 µM (SNB-19): 6.79%
- inhibition at 10 µM (ACHN 1): < 0%
- inhibition at 10 µM (HS 578T): < 0%
- inhibition at 10 µM (CCRF-CEM): 3.79%
- inhibition at 10 µM (OVCAR-5): < 0%
- inhibition at 10 µM (LOX IMVI): 4.72%
- inhibition at 10 µM (NCI-H522): 10.2%
- inhibition at 10 µM (SR): 19.9%
- inhibition at 10 µM (PC-3): 1.15%
- inhibition at 10 µM (SF-268): < 0%
- inhibition at 10 µM (SK-MEL-5): 1%
- inhibition at 10 µM (SW-620): < 0%
- inhibition at 10 µM (SK-OV-3): < 0%
- inhibition at 10 µM (OVCAR-4): 12.1%
- inhibition at 10 µM (NCI/ADR-RES): 6.28%
- inhibition at 10 µM (UACC-62): 26.2%
- inhibition at 10 µM (COLO 205): < 0%
- inhibition at 10 µM (HCT-116): 5.47%
- inhibition at 10 µM (KM12): 0.8%
- inhibition at 10 µM (T-47D): 18.4%
- inhibition at 10 µM (SK-MEL-2): 4.96%
- inhibition at 10 µM (OVCAR-3): < 0%
- inhibition at 10 µM (UO-31): 18.9%
